Results published in ChEMBL document CHEMBL1201862, “PubChem BioAssay data set” (2004).
Where “and” joins values, the source holds several entries; their conditions need not be identical. Equal entries are not always repeated. Calls of active or inactive are those of the source.

Experiments:
[1] = target: T1, Low molecular weight phosphotyrosine protein phosphatase (Homo sapiens, UniProt P24666); experiment: inhibition of human LMPTP enzyme activity – biochemical, absorbance, pNPP substrate, LMPTP-A isoform, set 2, orthogonal assay, dose response (AID 743308); type: functional
T1 sequence (P24666 whole entry): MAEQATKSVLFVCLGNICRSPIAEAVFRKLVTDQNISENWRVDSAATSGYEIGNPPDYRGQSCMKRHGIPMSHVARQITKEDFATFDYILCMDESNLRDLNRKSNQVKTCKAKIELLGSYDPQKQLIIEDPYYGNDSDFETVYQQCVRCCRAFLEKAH

[2] = target: T1, Low molecular weight phosphotyrosine protein phosphatase; experiment: inhibition of LMPTP-A enzymatic activity – biochemical, OMFP substrate, fluorescence intensity, set 2, dose response (AID 743307); type: functional
Transthyretin = Transthyretin (Homo sapiens, UniProt P02766); experiment: Luminescence-based cell-based high throughput dose response assay to identify activators of Transthyretin (TTR) transcription.; type: functional
[3] = target: Voltage-gated inwardly rectifying potassium channel KCNH2 (Homo sapiens, UniProt Q12809); experiment: concentration-dependent hERG rescue from blockers – cell-based, thallium flux, dose response (AID 2121); type: ADME
[4] = M. tuberculosis growth inhibition, HTS (AID 449762); type: functional
cells = type: functional
[5] = target: T2, Corticotropin-releasing factor receptor 2/Corticotropin-releasing factor-binding protein (Homo sapiens, UniProt P24387+Q13324); experiment: activators of CRF receptor 2 with binding protein – uHTS hits, confirmation (AID 602473); type: functional; details: read-out: EC50_Mean
T2 sequence (Q13324 whole entry): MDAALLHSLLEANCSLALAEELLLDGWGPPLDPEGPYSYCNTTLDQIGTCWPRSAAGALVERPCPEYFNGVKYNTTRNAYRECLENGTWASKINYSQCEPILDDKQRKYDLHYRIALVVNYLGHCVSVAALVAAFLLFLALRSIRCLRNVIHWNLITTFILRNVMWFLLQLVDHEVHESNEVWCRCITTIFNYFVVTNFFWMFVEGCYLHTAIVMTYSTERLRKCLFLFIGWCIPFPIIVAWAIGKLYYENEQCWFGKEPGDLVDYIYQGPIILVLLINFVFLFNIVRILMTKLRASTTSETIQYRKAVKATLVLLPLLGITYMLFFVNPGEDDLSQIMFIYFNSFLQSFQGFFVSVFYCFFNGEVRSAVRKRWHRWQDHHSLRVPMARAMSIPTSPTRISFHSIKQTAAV
T2 sequence (P24387 whole entry): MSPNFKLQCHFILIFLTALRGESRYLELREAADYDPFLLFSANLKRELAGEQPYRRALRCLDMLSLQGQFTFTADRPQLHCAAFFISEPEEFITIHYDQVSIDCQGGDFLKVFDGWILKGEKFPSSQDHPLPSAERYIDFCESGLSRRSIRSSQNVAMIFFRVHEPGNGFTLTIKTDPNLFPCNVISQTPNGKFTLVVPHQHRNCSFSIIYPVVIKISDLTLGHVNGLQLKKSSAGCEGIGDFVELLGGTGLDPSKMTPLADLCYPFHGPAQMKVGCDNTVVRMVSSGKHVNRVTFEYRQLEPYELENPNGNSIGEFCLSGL

[6] = Reduced DLD-1 viability, concentration-response, CellTiter-Glo luminescence (AID 1117352); type: functional
[7] = cytotoxicity toward Colo320 cells – cell-based, CellTiter-Glo luminescence, IC50, dose response (AID 1117334); type: functional; details: COLO 320
[8] = cytotoxicity toward HCT116 cells – cell-based, CellTiter-Glo luminescence, IC50, dose response (AID 1117332); type: functional; details: HCT-116
[9] = HCT116 cell viability decrease, GSK3B pretreatment – CellTiter-Glo, IC50, dose response (AID 1117339); type: functional; details: HCT-116
[10] = SNU-C1 cell viability reduction, dose response, CellTiter-Glo luminescence (AID 1117323); type: functional, cell-based
[11] = CellTiter-Glo luminescence survival assay, SW480 colon tumor line, concentration-response curve, half-maximal inhibitory concentration (AID 1117338); type: functional
[12] = RKO cell viability reduction, dose response, CellTiter-Glo luminescence (AID 1117322); type: functional
[13] = cytotoxicity toward HT-29 cells – cell-based, CellTiter-Glo luminescence, IC50, dose response (AID 1117330); type: functional
Insulin-degrading enzyme [14] = target: T3, Insulin-degrading enzyme (Homo sapiens, UniProt P14735); experiment: cellular IDE activation of Abeta substrate cleavage – fluorescence polarization, HEK cells, dose response (AID 588439); type: functional, cell-based
T3 sequence (P14735 whole entry): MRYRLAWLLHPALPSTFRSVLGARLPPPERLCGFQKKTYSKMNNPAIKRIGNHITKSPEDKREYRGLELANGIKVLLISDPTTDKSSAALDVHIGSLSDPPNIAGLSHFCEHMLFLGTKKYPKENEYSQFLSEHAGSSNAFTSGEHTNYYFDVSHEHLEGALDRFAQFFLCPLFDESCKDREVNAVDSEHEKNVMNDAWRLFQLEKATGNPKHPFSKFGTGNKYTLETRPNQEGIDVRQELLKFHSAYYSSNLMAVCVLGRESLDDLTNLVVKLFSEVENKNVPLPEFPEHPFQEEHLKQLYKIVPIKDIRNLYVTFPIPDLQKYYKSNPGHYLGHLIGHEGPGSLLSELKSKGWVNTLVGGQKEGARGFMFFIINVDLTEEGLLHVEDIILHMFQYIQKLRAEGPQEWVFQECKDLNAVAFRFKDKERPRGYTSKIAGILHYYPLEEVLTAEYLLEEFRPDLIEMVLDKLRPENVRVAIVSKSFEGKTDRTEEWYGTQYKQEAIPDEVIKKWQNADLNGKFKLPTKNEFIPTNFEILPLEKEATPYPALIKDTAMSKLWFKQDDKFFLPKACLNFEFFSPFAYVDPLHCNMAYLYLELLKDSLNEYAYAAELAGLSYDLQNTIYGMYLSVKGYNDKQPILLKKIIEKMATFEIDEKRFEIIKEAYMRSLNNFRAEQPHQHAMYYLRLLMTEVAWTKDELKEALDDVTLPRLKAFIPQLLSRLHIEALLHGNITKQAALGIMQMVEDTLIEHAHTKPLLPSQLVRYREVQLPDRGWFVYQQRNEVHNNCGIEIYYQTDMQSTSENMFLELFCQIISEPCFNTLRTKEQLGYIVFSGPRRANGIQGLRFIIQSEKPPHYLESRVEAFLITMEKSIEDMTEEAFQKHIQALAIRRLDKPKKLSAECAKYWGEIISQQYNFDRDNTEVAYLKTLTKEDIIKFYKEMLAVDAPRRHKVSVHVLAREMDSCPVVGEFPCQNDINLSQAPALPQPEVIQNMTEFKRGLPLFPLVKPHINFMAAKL

[15] = target: Glutathione-S-transferase (Schistosoma japonicum, UniProt Q26513); experiment: GST-antibody interaction or FRET quenching – biochemical, TR-FRET, artefact control for Vif-APOBEC3G degradation inhibitor project, dose response (AID 1117362); type: functional
Nonstructural protein 1 = Nonstructural protein 1 (Influenza A virus, UniProt Q194T2); type: functional, Influenza A virus (A/California/07/2009(H1N1))
[16] = target: Ras and Rab interactor 1/Tyrosine-protein kinase ABL1 (Homo sapiens, UniProt P00519+Q13671); type: functional;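 further: biochemical TR-FRET dose-response test measuring inhibition of binding between Rin1 and Abl proteins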
HEK293 [17] = experiment: optical interference in Abeta FP readout, dose response, artefact control for IDE activator project, biochemical, fluorescence polarization (AID 588442); type: functional, cell-based; details: Homo sapiens
HEK293 [18] = experiment: membrane integrity loss in HEK cells – cell-based, fluorescence, cytotoxicity control for IDE activator project, dose response (AID 588440); type: functional; details: Homo sapiens;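 further: cytotoxicity by LDH release measuring loss of membrane integrity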
Insulin-degrading enzyme [19] = target: T3, Insulin-degrading enzyme; experiment: recombinant IDE activation, cell-free – biochemical, fluorescence polarization, counter-screen for IDE activator project, dose response (AID 588681)

Ras and Rab interactor 1/Tyrosine-protein kinase ABL1, sequence (P00519 whole entry): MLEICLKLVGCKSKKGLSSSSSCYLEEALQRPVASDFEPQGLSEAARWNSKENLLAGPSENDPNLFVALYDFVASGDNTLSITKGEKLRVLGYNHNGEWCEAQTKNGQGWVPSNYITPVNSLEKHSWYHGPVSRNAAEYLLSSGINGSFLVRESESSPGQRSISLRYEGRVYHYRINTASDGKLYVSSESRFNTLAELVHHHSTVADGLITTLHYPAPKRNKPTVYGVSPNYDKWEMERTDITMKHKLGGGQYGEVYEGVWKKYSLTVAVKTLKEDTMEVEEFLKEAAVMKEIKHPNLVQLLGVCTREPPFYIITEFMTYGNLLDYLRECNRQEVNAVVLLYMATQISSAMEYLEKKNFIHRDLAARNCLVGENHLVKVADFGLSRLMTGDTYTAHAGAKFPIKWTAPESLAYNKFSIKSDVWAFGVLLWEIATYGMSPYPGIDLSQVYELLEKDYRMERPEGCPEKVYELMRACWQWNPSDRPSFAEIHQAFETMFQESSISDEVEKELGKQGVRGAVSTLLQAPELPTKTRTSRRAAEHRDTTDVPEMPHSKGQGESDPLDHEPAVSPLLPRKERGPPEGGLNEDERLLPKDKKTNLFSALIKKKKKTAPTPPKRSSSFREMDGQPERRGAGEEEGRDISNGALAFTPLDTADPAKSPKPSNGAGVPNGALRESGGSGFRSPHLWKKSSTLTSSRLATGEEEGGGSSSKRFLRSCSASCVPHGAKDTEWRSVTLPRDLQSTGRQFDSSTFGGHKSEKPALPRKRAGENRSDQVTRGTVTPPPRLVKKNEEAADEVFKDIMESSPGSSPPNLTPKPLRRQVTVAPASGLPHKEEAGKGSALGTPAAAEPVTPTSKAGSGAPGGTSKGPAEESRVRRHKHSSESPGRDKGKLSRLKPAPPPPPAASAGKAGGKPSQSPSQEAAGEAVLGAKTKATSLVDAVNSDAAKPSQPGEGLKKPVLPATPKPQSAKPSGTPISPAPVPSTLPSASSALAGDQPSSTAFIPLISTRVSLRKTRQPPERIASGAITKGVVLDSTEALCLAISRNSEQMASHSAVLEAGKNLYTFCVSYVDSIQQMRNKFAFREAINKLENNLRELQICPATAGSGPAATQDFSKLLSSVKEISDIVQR
Ras and Rab interactor 1/Tyrosine-protein kinase ABL1, sequence (Q13671 whole entry): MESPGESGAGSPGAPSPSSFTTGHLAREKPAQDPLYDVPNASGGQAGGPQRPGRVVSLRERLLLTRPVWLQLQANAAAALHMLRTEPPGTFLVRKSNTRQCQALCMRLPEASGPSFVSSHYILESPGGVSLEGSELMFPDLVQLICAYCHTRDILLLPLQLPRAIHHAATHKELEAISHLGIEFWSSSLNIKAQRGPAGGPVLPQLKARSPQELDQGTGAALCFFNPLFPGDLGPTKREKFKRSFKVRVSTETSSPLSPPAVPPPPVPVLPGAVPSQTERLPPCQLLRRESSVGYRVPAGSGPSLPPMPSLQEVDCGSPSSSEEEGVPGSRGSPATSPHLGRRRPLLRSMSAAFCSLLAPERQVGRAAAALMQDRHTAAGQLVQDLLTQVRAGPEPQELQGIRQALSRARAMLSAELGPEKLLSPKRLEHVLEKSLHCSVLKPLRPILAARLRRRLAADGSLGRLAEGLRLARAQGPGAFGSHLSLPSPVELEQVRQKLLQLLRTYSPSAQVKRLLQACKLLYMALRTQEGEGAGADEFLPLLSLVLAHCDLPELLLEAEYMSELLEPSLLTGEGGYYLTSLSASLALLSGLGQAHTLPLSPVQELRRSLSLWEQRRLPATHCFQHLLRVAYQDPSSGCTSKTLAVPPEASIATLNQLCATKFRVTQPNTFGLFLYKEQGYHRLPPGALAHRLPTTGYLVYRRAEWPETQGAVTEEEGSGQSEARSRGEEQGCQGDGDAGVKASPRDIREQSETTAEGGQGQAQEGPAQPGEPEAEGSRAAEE
Glutathione-S-transferase, sequence (Q26513 whole entry): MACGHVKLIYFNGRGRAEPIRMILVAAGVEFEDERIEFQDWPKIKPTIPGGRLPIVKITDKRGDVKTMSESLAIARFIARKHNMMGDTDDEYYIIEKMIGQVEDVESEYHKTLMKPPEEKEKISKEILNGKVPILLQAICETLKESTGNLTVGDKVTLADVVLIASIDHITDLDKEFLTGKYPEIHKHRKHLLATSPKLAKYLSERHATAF
Nonstructural protein 1, sequence (Q194T2 whole entry): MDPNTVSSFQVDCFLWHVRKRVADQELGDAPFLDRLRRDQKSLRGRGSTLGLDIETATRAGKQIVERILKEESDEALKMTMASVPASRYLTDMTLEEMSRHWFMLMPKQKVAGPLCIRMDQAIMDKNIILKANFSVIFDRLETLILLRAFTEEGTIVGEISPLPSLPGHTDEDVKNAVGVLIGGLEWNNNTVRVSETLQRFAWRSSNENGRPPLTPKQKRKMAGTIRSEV
Voltage-gated inwardly rectifying potassium channel KCNH2, sequence (Q12809 whole entry): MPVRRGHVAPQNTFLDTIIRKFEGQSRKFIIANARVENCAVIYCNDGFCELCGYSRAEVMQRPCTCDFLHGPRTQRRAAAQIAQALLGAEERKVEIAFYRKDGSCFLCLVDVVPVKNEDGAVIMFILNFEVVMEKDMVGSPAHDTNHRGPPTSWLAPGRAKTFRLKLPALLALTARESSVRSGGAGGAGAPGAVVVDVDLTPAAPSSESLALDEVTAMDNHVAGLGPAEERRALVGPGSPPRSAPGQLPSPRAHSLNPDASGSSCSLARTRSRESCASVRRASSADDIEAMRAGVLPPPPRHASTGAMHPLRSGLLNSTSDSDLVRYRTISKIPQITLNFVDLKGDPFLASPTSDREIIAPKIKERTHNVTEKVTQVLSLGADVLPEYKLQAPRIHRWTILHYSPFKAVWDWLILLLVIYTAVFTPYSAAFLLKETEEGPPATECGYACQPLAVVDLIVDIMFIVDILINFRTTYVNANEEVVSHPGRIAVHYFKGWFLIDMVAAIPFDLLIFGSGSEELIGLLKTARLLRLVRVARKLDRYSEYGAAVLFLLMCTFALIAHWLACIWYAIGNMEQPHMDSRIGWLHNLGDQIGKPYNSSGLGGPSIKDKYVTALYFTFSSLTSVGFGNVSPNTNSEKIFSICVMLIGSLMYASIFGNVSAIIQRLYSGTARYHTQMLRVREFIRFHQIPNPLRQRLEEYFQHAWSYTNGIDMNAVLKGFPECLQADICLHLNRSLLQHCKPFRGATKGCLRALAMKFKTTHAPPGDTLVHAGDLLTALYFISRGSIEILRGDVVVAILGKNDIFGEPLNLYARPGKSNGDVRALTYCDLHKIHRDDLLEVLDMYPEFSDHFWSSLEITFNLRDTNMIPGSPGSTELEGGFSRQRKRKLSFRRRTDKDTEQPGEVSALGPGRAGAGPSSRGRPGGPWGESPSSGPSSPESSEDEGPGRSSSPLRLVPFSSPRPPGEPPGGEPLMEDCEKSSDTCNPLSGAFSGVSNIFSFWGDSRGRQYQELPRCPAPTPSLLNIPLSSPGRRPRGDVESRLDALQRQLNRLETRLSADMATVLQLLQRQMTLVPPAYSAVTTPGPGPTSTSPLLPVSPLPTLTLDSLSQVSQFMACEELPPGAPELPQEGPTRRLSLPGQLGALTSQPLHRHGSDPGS

Compound: c1ccc(-c2nc(N3CCOCC3)c3ccccc3n2)cc1
- IC50 [1]: > 80 µM (inactive)
- IC50 [2]: > 80 µM (inactive)

Compound: Cc1ccc([C@H]2C[C@@H](O)[C@H](n3cc(-c4ccc(F)cc4)nn3)CN2C(=O)c2cccs2)cc1
- EC50 (Transthyretin): > 167 µM (inactive)

Compound: CCOc1ccc2nc(/N=C/c3nc(-c4ccccc4)oc3O)sc2c1
- EC50 [3]: 1.69 µM (active)
- IC50 [4]: > 100 µM (active)
- IC50 (cells): 3.76 µM (active)
- EC50 [5]: 14.6 µM (active)

Compound: CC(C)(CO)[C@@H](O)C(=O)NCCC(=O)NCCSSCCNC(=O)CCNC(=O)[C@H](O)C(C)(C)CO
- IC50 [6]: > 20 µM (inactive)
- IC50 [7]: > 20 µM (inactive)
- IC50 [8]: > 20 µM (inactive)
- IC50 [9]: > 20 µM (inactive)
- IC50 [10]: > 20 µM (inactive)
- IC50 [11]: > 20 µM (inactive)
- IC50 [12]: > 20 µM (inactive)
- IC50 [13]: > 20 µM (inactive)

Compound: O=C(O)CCCC[C@@H]1SC[C@@H]2NC(=O)N[C@@H]21 [BIOTIN]
- EC50 (Insulin-degrading enzyme [14]): 2.37 µM (active)
- IC50 [15]: 0.85 µM (active)
- IC50 (Nonstructural protein 1): < 0.2 µM (active)
- IC50 [16]: > 3.73 nM (active) and 529 nM (active)
- EC50 (HEK293 [17]): 2.06 µM (active)
- IC50 (HEK293 [18]): > 89.3 µM (inactive)
- EC50 (Insulin-degrading enzyme [19]): 2.53 µM (active)
